≈ marks a conversion by molar mass, not a printed value.
Columns and labels:
Type in all cases: functional
Staphylococcus aureus = assay: Antibacterial activity against Staphylococcus aureus MTCC 96 by agar streak dilution method
Escherichia coli = assay: Antibacterial activity against Escherichia coli MTCC 739 by agar streak dilution method
Candida albicans = assay: Antifungal activity against Candida albicans MTCC 183 by agar streak dilution method
Bacillus cereus = assay: Antibacterial activity against Bacillus cereus MTCC 619 by agar streak dilution method
Klebsiella pneumoniae = assay: Antibacterial activity against Klebsiella pneumoniae MTCC 109 by agar streak dilution method
Aspergillus niger = assay: Antifungal activity against Aspergillus niger MTCC 282 by agar streak dilution method
Pseudomonas aeruginosa = assay: Antibacterial activity against Pseudomonas aeruginosa MTCC 741 by agar streak dilution method

## COc1ccc2nc(NC(=O)CSc3nnc(-c4ccc5ncccc5c4)n3-c3cccc4ccccc34)sc2c1
Staphylococcus aureus
  MIC: 100 µg/mL (≈ 174 µM)
Escherichia coli
  MIC: 62.5 µg/mL (≈ 109 µM)
Candida albicans
  MIC: 25 µg/mL (≈ 43.5 µM)
Bacillus cereus
  MIC: 100 µg/mL (≈ 174 µM)
Klebsiella pneumoniae
  MIC: 62.5 µg/mL (≈ 109 µM)
Aspergillus niger
  MIC: 6.25 µg/mL (≈ 10.9 µM)
Pseudomonas aeruginosa
  MIC: 50 µg/mL (≈ 87 µM)

## O=C(CSc1nnc(-c2ccc3ncccc3c2)n1-c1cccc2ccccc12)Nc1nc2ccc(I)cc2s1
Staphylococcus aureus
  MIC: 250 µg/mL (≈ 373 µM)
Escherichia coli
  MIC: 250 µg/mL (≈ 373 µM)
Candida albicans
  MIC: 62.5 µg/mL (≈ 93.2 µM)
Bacillus cereus
  MIC: 200 µg/mL (≈ 298 µM)
Klebsiella pneumoniae
  MIC: 100 µg/mL (≈ 149 µM)
Aspergillus niger
  MIC: 62.5 µg/mL (≈ 93.2 µM)
Pseudomonas aeruginosa
  MIC: 250 µg/mL (≈ 373 µM)

## O=C(CSc1nnc(-c2ccc3ncccc3c2)n1-c1cccc2ccccc12)Nc1nc2ccc(Br)cc2s1
Staphylococcus aureus
  MIC: 50 µg/mL (≈ 80.2 µM)
Escherichia coli
  MIC: 62.5 µg/mL (≈ 100 µM)
Candida albicans
  MIC: 25 µg/mL (≈ 40.1 µM)
Bacillus cereus
  MIC: 25 µg/mL (≈ 40.1 µM)
Klebsiella pneumoniae
  MIC: 100 µg/mL (≈ 160 µM)
Aspergillus niger
  MIC: 50 µg/mL (≈ 80.2 µM)
Pseudomonas aeruginosa
  MIC: 100 µg/mL (≈ 160 µM)

## O=C(CSc1nnc(-c2ccc3ncccc3c2)n1-c1cccc2ccccc12)Nc1nc2ccc(F)cc2s1
Staphylococcus aureus
  MIC: 25 µg/mL (≈ 44.4 µM)
Escherichia coli
  MIC: 100 µg/mL (≈ 178 µM)
Candida albicans
  MIC: 50 µg/mL (≈ 88.9 µM)
Bacillus cereus
  MIC: 50 µg/mL (≈ 88.9 µM)
Klebsiella pneumoniae
  MIC: 62.5 µg/mL (≈ 111 µM)
Aspergillus niger
  MIC: 25 µg/mL (≈ 44.4 µM)
Pseudomonas aeruginosa
  MIC: 100 µg/mL (≈ 178 µM)

## CC(=O)Nc1ccc2nc(NC(=O)CSc3nnc(-c4ccc5ncccc5c4)n3-c3cccc4ccccc34)sc2c1
Staphylococcus aureus
  MIC: 500 µg/mL (≈ 831 µM)
Escherichia coli
  MIC: 200 µg/mL (≈ 332 µM)
Candida albicans
  MIC: 100 µg/mL (≈ 166 µM)
Bacillus cereus
  MIC: 250 µg/mL (≈ 415 µM)
Klebsiella pneumoniae
  MIC: 250 µg/mL (≈ 415 µM)
Aspergillus niger
  MIC: 62.5 µg/mL (≈ 104 µM)
Pseudomonas aeruginosa
  MIC: 62.5 µg/mL (≈ 104 µM)

## GENTAMICIN
Staphylococcus aureus
  MIC: 6.25 µg/mL
Escherichia coli
  MIC: 12.5 µg/mL
Bacillus cereus
  MIC: 6.25 µg/mL
Klebsiella pneumoniae
  MIC: 25 µg/mL
Pseudomonas aeruginosa
  MIC: 12.5 µg/mL

## O=C(CSc1nnc(-c2ccc3ncccc3c2)n1-c1cccc2ccccc12)Nc1nc2ccccc2s1
Staphylococcus aureus
  MIC: 500 µg/mL (≈ 918 µM)
Escherichia coli
  MIC: 250 µg/mL (≈ 459 µM)
Candida albicans
  MIC: 100 µg/mL (≈ 184 µM)
Bacillus cereus
  MIC: 250 µg/mL (≈ 459 µM)
Klebsiella pneumoniae
  MIC: 500 µg/mL (≈ 918 µM)
Aspergillus niger
  MIC: 200 µg/mL (≈ 367 µM)
Pseudomonas aeruginosa
  MIC: 500 µg/mL (≈ 918 µM)

## O=C(CSc1nnc(-c2ccc3ncccc3c2)n1-c1cccc2ccccc12)Nc1nc2ccc(Cl)cc2s1
Staphylococcus aureus
  MIC: 200 µg/mL (≈ 345 µM)
Escherichia coli
  MIC: 100 µg/mL (≈ 173 µM)
Candida albicans
  MIC: 50 µg/mL (≈ 86.3 µM)
Bacillus cereus
  MIC: 100 µg/mL (≈ 173 µM)
Klebsiella pneumoniae
  MIC: 62.5 µg/mL (≈ 108 µM)
Aspergillus niger
  MIC: 100 µg/mL (≈ 173 µM)
Pseudomonas aeruginosa
  MIC: 200 µg/mL (≈ 345 µM)

## CCOc1ccc2nc(NC(=O)CSc3nnc(-c4ccc5ncccc5c4)n3-c3cccc4ccccc34)sc2c1
Staphylococcus aureus
  MIC: 200 µg/mL (≈ 340 µM)
Escherichia coli
  MIC: 100 µg/mL (≈ 170 µM)
Candida albicans
  MIC: 6.25 µg/mL (≈ 10.6 µM)
Bacillus cereus
  MIC: 100 µg/mL (≈ 170 µM)
Klebsiella pneumoniae
  MIC: 100 µg/mL (≈ 170 µM)
Aspergillus niger
  MIC: 12.5 µg/mL (≈ 21.2 µM)
Pseudomonas aeruginosa
  MIC: 25 µg/mL (≈ 42.5 µM)

## Cc1ccc2nc(NC(=O)CSc3nnc(-c4ccc5ncccc5c4)n3-c3cccc4ccccc34)sc2c1
Staphylococcus aureus
  MIC: > 500 µg/mL
Escherichia coli
  MIC: 200 µg/mL (≈ 358 µM)
Candida albicans
  MIC: 200 µg/mL (≈ 358 µM)
Bacillus cereus
  MIC: 250 µg/mL (≈ 447 µM)
Klebsiella pneumoniae
  MIC: 500 µg/mL (≈ 895 µM)
Aspergillus niger
  MIC: 50 µg/mL (≈ 89.5 µM)
Pseudomonas aeruginosa
  MIC: 100 µg/mL (≈ 179 µM)

## CC1(C)S[C@@H]2[C@H](NC(=O)[C@H](N)c3ccccc3)C(=O)N2[C@H]1C(=O)O [AMPICILLIN]
Staphylococcus aureus
  MIC: 12.5 µg/mL (≈ 35.8 µM)
Escherichia coli
  MIC: 6.25 µg/mL (≈ 17.9 µM)
Bacillus cereus
  MIC: 12.5 µg/mL (≈ 35.8 µM)
Klebsiella pneumoniae
  MIC: 25 µg/mL (≈ 71.5 µM)
Pseudomonas aeruginosa
  MIC: 25 µg/mL (≈ 71.5 µM)

## N#Cc1ccc2nc(NC(=O)CSc3nnc(-c4ccc5ncccc5c4)n3-c3cccc4ccccc34)sc2c1
Staphylococcus aureus
  MIC: 500 µg/mL (≈ 878 µM)
Escherichia coli
  MIC: 50 µg/mL (≈ 87.8 µM)
Candida albicans
  MIC: 6.25 µg/mL (≈ 11 µM)
Bacillus cereus
  MIC: 200 µg/mL (≈ 351 µM)
Klebsiella pneumoniae
  MIC: 50 µg/mL (≈ 87.8 µM)
Aspergillus niger
  MIC: 100 µg/mL (≈ 176 µM)
Pseudomonas aeruginosa
  MIC: 100 µg/mL (≈ 176 µM)

## OC(Cn1cncn1)(Cn1cncn1)c1ccc(F)cc1F [FLUCONAZOLE]
Candida albicans
  MIC: 12.5 µg/mL (≈ 40.8 µM)
Aspergillus niger
  MIC: 6.25 µg/mL (≈ 20.4 µM)

## O=C(CSc1nnc(-c2ccc3ncccc3c2)n1-c1cccc2ccccc12)Nc1nc2ccc([N+](=O)[O-])cc2s1
Staphylococcus aureus
  MIC: 200 µg/mL (≈ 339 µM)
Escherichia coli
  MIC: 50 µg/mL (≈ 84.8 µM)
Candida albicans
  MIC: 50 µg/mL (≈ 84.8 µM)
Bacillus cereus
  MIC: 62.5 µg/mL (≈ 106 µM)
Klebsiella pneumoniae
  MIC: 50 µg/mL (≈ 84.8 µM)
Aspergillus niger
  MIC: 6.25 µg/mL (≈ 10.6 µM)
Pseudomonas aeruginosa
  MIC: 50 µg/mL (≈ 84.8 µM)

— ChEMBL document CHEMBL3098118, “Access to a new class of biologically active quinoline based 1,2,4-triazoles” (2014)
